Test results reported in patent US8247211B2, “Glycopeptide antibiotics” (American Cyanamid Company, priority 2001, dated 2012).
Converted amounts (≈) assume the structure as drawn.

Key:
Enterococcus sp. = test: In vitro antibacterial evaluation: minimum inhibitory concentration (MIC), broth dilution method; format: cell-based; conditions: broth dilution, 5×10^5 CFU/mL, 18 hours at 35° C.
How it was run: (§1)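 Broth dilution per NCCLS M7-A2 in Muller-Hinton II […], inoculum 5×10^5 CFU/mL, antibiotic tested over 64-0.06 μg/mL. MIC is taken as the lowest concentration that inhibits growth. Panel includes recent clinical isolates resistant to methicillin, penicillin and/or vancomycin.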

Escherichia coli = test: as above; format: cell-based; conditions: 5×10^5 CFU/mL, 18 hours at 35° C.
How it was run: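 Using Muller-Hinton II […] and an inoculum of 5×10^5 CFU/mL, antibiotic dilutions from 64 down to 0.06 μg/mL were tested following NCCLS M7-A2. The MIC is the lowest concentration inhibiting growth, including in methicillin-, penicillin- or vancomycin-resistant clinical isolates.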

Staphylococcus sp. = test: as above; format: cell-based; conditions: for MIC Staphylococcus aureus-SMITH (GC 4543): strain GC 4543; for MIC Staphylococcus haemolyticus (GC 4546): strain GC 4546; for MIC Coagulase Negative Staphylococcus (GC 4547): strain GC 4547; for MIC Coagulase Negative Staphylococcus (GC 4548): strain GC 4548; for MIC Coagulase Negative Staphylococcus (GC 4549): strain GC 4549; for MIC Coagulase Negative Staphylococcus (GC 4551): strain GC 4551; for MIC Coagulase Negative Staphylococcus (ID-3941): strain ID-3941
How it was run: as §1

Streptococcus sp. = test: as above; format: cell-based; conditions: broth dilution, 5×10^5 CFU/mL, 18 hours at 35° C.
How it was run: as §1

[1] = tested on: Enterococcus faecalis (GC 2246), vancomycin resistant strain; test: Acute lethal infection in mice (ED50); format: in vivo; conditions: female CD-1 mice, intraperitoneal challenge, intravenous dose 30 min. after infection, 7 day survival ratios
How it was run: (§2)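 Groups of five female CD-1 mice per dose got intravenous antibiotic in saline or 5% dextrose half an hour after intraperitoneal infection sufficient to kill controls within 24-48 hr. Seven-day survival data from three experiments were combined to derive ED50.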

[2] = tested on: Staphylococcus aureus-SMITH (GC 4543); test: Acute lethal infection in mice (ED50); format: in vivo; conditions: female CD-1 mice, intraperitoneal challenge, intravenous dose 30 min. after infection, 7 day survival ratios
How it was run: as §2

[3] = broth dilution, 18 hours at 35° C.

SMILES: CCCC(CCC)C(=O)OCC1OC(OC2C(CO)OC(Oc3ccc(CC4NC(=O)C(C(C)c5ccccc5)NC(=O)CNC(=O)C(CO)NC(=O)C(C(O)C5CNC(=N)N5C5OC(CO)C(O)C(O)C5O)NC(=O)C(C(O)C5CNC(=N)N5)NC4=O)cc3)C(O)C2O)C(O)C(O)C1O (stereo not drawn) [Example 99c, Cyclo[glycyl-β-methylphenylalanyl-O-[4-O-[6-O-(2-propylpentanoyl)hexopyranosyl]-hexopyranosyl]tyrosyl-3-(2-iminoimidazolidin-4-yl)seryl-3-(3-hexopyranosyl-2-iminoimidazolidin-4-yl)serylseryl]]
- MIC Enterococccus avium (GC 4558) (Enterococcus sp.): 4 µg/mL (≈ 2.81 µM)
- MIC Enterococccus faecalis (ATCC 29212) (Enterococcus sp.): 4 µg/mL (≈ 2.81 µM)
- MIC Enterococccus faecalis (GC 4552) (Enterococcus sp.): 4 µg/mL (≈ 2.81 µM)
- MIC Enterococccus faecalis (GC 4553) (Enterococcus sp.): 4 µg/mL (≈ 2.81 µM)
- MIC Enterococccus faecalis (GC 4554) (Enterococcus sp.): 4 µg/mL (≈ 2.81 µM)
- MIC Enterococccus faecium (GC 2243) (Enterococcus sp.): 4 µg/mL (≈ 2.81 µM)
- MIC Enterococccus faecium (GC 4556) (Enterococcus sp.): 4 µg/mL (≈ 2.81 µM)
- MIC Enterococccus faecium (GC 4557) (Enterococcus sp.): 2 µg/mL (≈ 1.41 µM)
- MIC Enterococcus faecalis (GC 2242) (Enterococcus sp.): 4 µg/mL (≈ 2.81 µM)
- MIC Escherichia coli (ATCC 25922) (Escherichia coli): 64 µg/mL (≈ 45 µM)
- MIC Staphylococcus aureus (ATCC 29213) (Staphylococcus sp.; strain ATCC 29213): 1 µg/mL (≈ 0.703 µM)
- MIC Staphylococcus aureus (GC 1131) (Staphylococcus sp.; strain GC 1131): 2 µg/mL (≈ 1.41 µM)
- MIC Staphylococcus aureus (GC 4541) (Staphylococcus sp.; strain GC 4541): 2 µg/mL (≈ 1.41 µM)
- MIC Staphylococcus aureus (GC 4542) (Staphylococcus sp.; strain GC 4542): 1 µg/mL (≈ 0.703 µM)
- MIC Staphylococcus aureus-SMITH (GC 4543) (Staphylococcus sp.; 18 hours at 35° C.): 1 µg/mL (≈ 0.703 µM)
- MIC Staphylococcus aureus-SMITH (GC 4543) (Staphylococcus sp.; [3]): 1 µg/mL (≈ 0.703 µM)
- MIC Staphylococcus aureus (GC 4544) (Staphylococcus sp.; strain GC 4544): 2 µg/mL (≈ 1.41 µM)
- MIC Staphylococcus aureus (GC 4545) (Staphylococcus sp.; strain GC 4545): 1 µg/mL (≈ 0.703 µM)
- MIC Staphylococcus haemolyticus (GC 4546) (Staphylococcus sp.): 1 µg/mL (≈ 0.703 µM)
- MIC Staphylococcus haemolyticus (GC 4546) (Staphylococcus sp.; [3]): 1 µg/mL (≈ 0.703 µM)
- MIC Coagulase Negative Staphylococcus (GC 4547) (Staphylococcus sp.): 1 µg/mL (≈ 0.703 µM)
- MIC Coagulase Negative Staphylococcus (GC 4547) (Staphylococcus sp.; [3]): 1 µg/mL (≈ 0.703 µM)
- MIC Coagulase Negative Staphylococcus (GC 4548) (Staphylococcus sp.): 1 µg/mL (≈ 0.703 µM)
- MIC Coagulase Negative Staphylococcus (GC 4548) (Staphylococcus sp.; [3]): 1 µg/mL (≈ 0.703 µM)
- MIC Coagulase Negative Staphylococcus (GC 4549) (Staphylococcus sp.): 1 µg/mL (≈ 0.703 µM)
- MIC Coagulase Negative Staphylococcus (GC 4549) (Staphylococcus sp.; [3]): 1 µg/mL (≈ 0.703 µM)
- MIC Coagulase Negative Staphylococcus (GC 4551) (Staphylococcus sp.): 2 µg/mL (≈ 1.41 µM)
- MIC Coagulase Negative Staphylococcus (GC 4551) (Staphylococcus sp.; [3]): 2 µg/mL (≈ 1.41 µM)
- MIC Coagulase Negative Staphylococcus (ID-3941) (Staphylococcus sp.): 1 µg/mL (≈ 0.703 µM)
- MIC Coagulase Negative Staphylococcus (ID-3941) (Staphylococcus sp.; [3]): 1 µg/mL (≈ 0.703 µM)
- MIC Streptococcus agalactiae (GC 4564) (Streptococcus sp.): <0.5 µg/mL
- MIC Streptococcus pneumoniae (GC 4565) (Streptococcus sp.): <0.5 µg/mL
- MIC Streptococcus pyogenes (ID-3187) (Streptococcus sp.): <0.5 µg/mL
- median effective dose (ED50), Enterococcus faecalis (GC 2246) [1]: 4.3 mg/kg
- median effective dose (ED50), Staphylococcus aureus-SMITH (GC 4543) [2]: 0.52 mg/kg
